Where a SMILES comes first, the peptide text is derived from it. Bridges are numbered along the chain shown (N, C = ends). [ ]: non-standard residue; d: D form. Hyp = O=C(O)[C@@H]1C[C@@H](O)CN1
Experiments:
[1] = test system: trypsin; assay: in vitro; conditions: pH 7.2
Method: To this was added trypsin (Sigma Co.) in an amount of 1/20 weight of compound (1) or (b). The resulting solution was incubated at 37° C. and sampled at intervals. The samples were analyzed by HPLC, using a reversed-phase column (YMC-Pack, ODS-AM, 150×6 mm I.D.). Elution was carried out by linear gradient elution using acetonitrile (0% to 45%) containing 0.1% TFA for 30 minutes. Absorbance at 220 nm of the eluates was measured.

[2] = test system: T1, α-chymotrypsin; assay: Stability to α-chymotrypsin; format: in vitro ADME; conditions: α-chymotrypsin (Sigma Co.); after 6 hours; α-chymotrypsin 1/10 weight, pH 7.2, 37° C.; read-out: residual amount remaining
T1 construct: purchased Sigma Co
Method: (§1) To this were added α-chymotrypsin (Sigma Co.) and N^α-p-tosyl-L-lysine chloromethyl ketone (Sigma Co.) each in an amount of 1/10 weight of compound (2) or (c). […] Absorbance at 220 nm of the eluate was measured.

[3] = test system: prolyl-endopeptidase; assay: in vitro; conditions: prolyl-endopeptidase (Seikagaku Corporation), pH 7.2
Method: (§2) The resulting mixture was incubated at 37° C. and sampled at intervals. The samples were analyzed by HPLC, using a reversed-phase column (YMC-Pack, ODS-AM, 150×6 mm I.D.). Elution was carried out by linear gradient elution using acetonitrile (0% to 45%) containing 0.1% TFA for 30 minutes. Absorbance at 220 nm of the eluate was measured.

[4] = target: prolyl-endopeptidase (Elizabethkingia meningoseptica, UniProt P27028); assay: in vitro; conditions: prolyl-endopeptidase in PBS(−) buffer, pH 7.2
Method: as §2

[5] = test system: platelet-rich plasma (PRP); assay: Inhibitory activity against agglutination of platelets stimulated by collagen; format: cell-based, white rabbit; conditions: collagen 10 μg/ml
Method: The blood was collected from the heart of a white rabbit (male weight 2 kg) and mixed with 3.8% sodium citrate (1:9 3.8% sodium citrate/blood). The mixture was centrifuged at 900 r.p.m., and the supernatant was isolated as platelet-rich plasma (PRP). The remaining lower layer was centrifuged at 2500 r.p.m., and the supernatent was isolated as platelet-poor plasma (PPP). These isolates were used in the following test. The percentage of platelet agglutination was measured, using a platelet agglutination measuring device, TE-500 (produced by Elmer Optical Co.). As the standard for platelet agglutination in this test, the percentage of platelet agglutination measured in PRP only was defined as 0%, while that measured in PPP only as 100%. Test solutions each containing a test compound, compound (1) or compound (b) were prepared so as to give a final concentration of 1, 0.3 or 0.1 mM.
Ten μl of re-distilled water (as a control) or the test solution and 200 μl of PRP were put into a cuvet and pre-incubated for 3 minutes, then 10 μl of a collagen that had been prepared to have a final concentration of 10 μg/ml were added thereto, and the percentage of platelet agglutination was measured.

[6] = test system: B16-F10 (mouse melanoma) cells; assay: Cell-adhesion inhibiting activity (adhesion of biotin-labeled cells to mouse fibronectin-coated plate); format: cell-based
Method: To a 96-well flat bottom plate (Sumitomo Bakelite Co.) added were […] (5 μg/ml-culture) of mouse fibronectin (produced by Telios Pharmaceutical Inc.). The plate was allowed to stand for 2 hours at room temperature to coat with mouse fibronectin. Each solution was added to the plate. Next, biotin-labeled B16-F10 (mouse melanoma) cells were added thereto and incubated at 37° C. for 30 minutes. After incubation, the non-adhered cells were removed by suction, and the adhered cells were fixed by 0.25% glutaraldehyde/PBS. The thus-fixed cells were washed with Tween-PBS, and peroxidase-labeled avidin D (Vector Co.) was added thereto and reacted for one hour at room temperature. Thereafter, the cells were washed with Tween-PBS and colored with an ABTS solution. Using NJ-2001 (Nippon Intermed Co.), the absorbance of the colored cells at OD415 was measured by colorimetry.
From the absorbance thus measured, the percentage inhibition of adhesion of the cells was obtained according to the following equation: Percentage Inhibition of Cell Adhesion=[(A−B)/A]×100 • A: absorbance in the absence of the test compound • B: absorbance in the presence of the test compound […]

[7] = target: T2, α-chymotrypsin (Bos taurus, UniProt P00766, DEL14-15/DEL147-148); assay: Stability to α-chymotrypsin; format: in vitro ADME; conditions: α-chymotrypsin (Sigma Co.) in PBS(−) buffer; α-chymotrypsin 1/10 weight, PBS(−) pH 7.2, 37° C.
T2 construct: purchased Sigma Co
Method: as §1

[8] = target: T3, BK receptor derived from guinea pig ilea (Cavia porcellus, UniProt O70526); assay: BK-receptor binding inhibiting activity; conditions: 3H-BK 200 pM
T3 construct: from tissue; host or cells: guinea pig ileum membrane fraction
T3 sequence (O70526 1-372): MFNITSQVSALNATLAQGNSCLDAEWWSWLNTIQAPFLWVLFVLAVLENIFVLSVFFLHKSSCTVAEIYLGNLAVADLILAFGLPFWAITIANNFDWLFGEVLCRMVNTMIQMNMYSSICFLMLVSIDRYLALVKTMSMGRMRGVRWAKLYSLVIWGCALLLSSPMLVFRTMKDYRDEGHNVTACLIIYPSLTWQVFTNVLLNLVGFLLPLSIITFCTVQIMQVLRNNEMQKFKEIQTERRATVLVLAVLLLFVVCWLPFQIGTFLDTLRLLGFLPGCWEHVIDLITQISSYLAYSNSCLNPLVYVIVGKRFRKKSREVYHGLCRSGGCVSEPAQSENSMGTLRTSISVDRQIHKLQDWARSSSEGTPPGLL
Method: Inhibition of the binding of BK to the BK receptor derived from guinea pig ilea
Using a polytron (Type PT10/35, Kinematica Gmbh), guinea pig ilea was homogenized in buffer (A) (containing 25 mM N-tris(hydroxymethyl)methyl-2-aminoethane-sulfonic acid-NaOH, pH 6.8) at 4° C.
The suspension thus obtained was centrifuged at 4° C. for 10 minutes at 8,000×g, and the supernatant was collected. The supernatant was further centrifuged at 4° C. for 60 minutes at 40,000×g, and the solid was collected. The solid was suspended in buffer (A), and the resulting suspension was centrifuged at 4° C. for 60 minutes at 40,000×g. The resulting solid was suspended to give a protein content of 2 mg/ml to serve as a membrane fraction. […]
^3H-BK (200 pM) was added to each of the membrane fraction solutions, to which non-labeled BK (final concentration: 1 μM) had been added, a test compound had been added or none of these had been added. […] The filter was washed with buffer (C) (comprising 50 mM Tris-HCl, 1 mM EDTA, pH 7.6), and the radioactivity of the filter was measured, using a liquid scintillation counter (LSC3500, Aroka Co.) to determine the amount of the ^3H-BK bound to the receptor and non-specifically bound 3H-BK. […]

[9] = snake venom peptides, literature; cited from earlier work

Sequence of prolyl-endopeptidase (Elizabethkingia meningoseptica, UniProt P27028) (P27028 21-705): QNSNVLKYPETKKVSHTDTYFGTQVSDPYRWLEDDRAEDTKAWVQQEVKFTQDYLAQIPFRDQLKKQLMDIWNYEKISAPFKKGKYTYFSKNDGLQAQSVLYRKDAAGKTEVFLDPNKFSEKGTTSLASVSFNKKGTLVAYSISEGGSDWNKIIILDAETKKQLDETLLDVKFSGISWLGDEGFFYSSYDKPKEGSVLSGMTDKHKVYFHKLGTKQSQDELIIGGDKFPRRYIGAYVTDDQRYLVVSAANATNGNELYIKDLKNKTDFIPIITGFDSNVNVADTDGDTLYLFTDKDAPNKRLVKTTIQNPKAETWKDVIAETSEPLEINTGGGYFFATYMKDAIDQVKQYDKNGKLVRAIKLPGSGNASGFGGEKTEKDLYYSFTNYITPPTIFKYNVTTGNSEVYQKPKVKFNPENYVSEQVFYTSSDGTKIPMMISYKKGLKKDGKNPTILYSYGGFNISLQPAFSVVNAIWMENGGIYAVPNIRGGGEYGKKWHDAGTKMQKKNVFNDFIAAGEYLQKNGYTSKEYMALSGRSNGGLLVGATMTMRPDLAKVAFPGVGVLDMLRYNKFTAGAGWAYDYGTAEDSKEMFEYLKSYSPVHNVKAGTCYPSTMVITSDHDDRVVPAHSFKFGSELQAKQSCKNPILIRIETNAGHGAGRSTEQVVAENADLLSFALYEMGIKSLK

CC(C)[C@H](NC(=O)[C@H](Cc1c[nH]c2ccccc12)NC(=O)[C@@H]1CC(=O)NCC(=O)N[C@@H](CC(N)=O)C(=O)N[C@@H](Cc2c[nH]c3ccccc23)C(=O)N[C@@H](Cc2c[nH]cn2)C(=O)NCC(=O)N[C@@H]([C@@H](C)O)C(=O)N[C@@H](C)C(=O)N2CCC[C@H]2C(=O)N1)C(=O)N[C@H](C(=O)NCC(=O)N[C@@H](CCCNC(=N)N)C(=O)NCC(=O)N[C@@H](CC(=O)O)C(=O)N[C@@H](CO)C(=O)N1CCC[C@H]1C(=O)N[C@@H](C)C(=O)O)[C@@H](C)O [Compound 1] (GNWHGTAPDWVTGRGDSPA-OH; lactam N-9)
remaining at 9 h, 25 μg/ml ([1]; trypsin (Sigma Co.)): ~60%

CC(C)[C@H](NC(=O)[C@H](C)NC(=O)[C@H](Cc1ccc(O)cc1)NC(=O)[C@@H](NC(=O)[C@H](Cc1c[nH]c2ccccc12)NC(=O)[C@@H]1CC(=O)NCC(=O)N[C@@H](CC(N)=O)C(=O)N[C@@H](Cc2c[nH]c3ccccc23)C(=O)N[C@@H](Cc2c[nH]cn2)C(=O)NCC(=O)N[C@@H]([C@@H](C)O)C(=O)N[C@@H](C)C(=O)N2CCC[C@H]2C(=O)N1)C(C)C)C(=O)N[C@H](C(=O)NCC(=O)N[C@@H](CCCNC(=N)N)C(=O)NCC(=O)N[C@@H](CC(=O)O)C(=O)N[C@@H](CO)C(=O)N1CCC[C@H]1C(=O)N[C@@H](C)C(N)=O)[C@@H](C)O [Compound 2] (GNWHGTAPDWVYAVTGRGDSPA-NH2; lactam N-9)
remaining at 6 h, 25 μg/ml [2]: ~95%

CSCC[C@H](NC(=O)[C@@H](NC(=O)[C@@H](NC(=O)[C@H](CS)NC(=O)[C@@H]1CCCN1C(=O)[C@H](CC(C)C)NC(=O)CNC(=O)[C@H](CCSC)NC(=O)[C@H](CO)NC(=O)[C@H](Cc1c[nH]c2ccccc12)NC(=O)[C@@H]1CC(=O)NCC(=O)N[C@@H](CC(N)=O)C(=O)N[C@@H](Cc2c[nH]c3ccccc23)C(=O)N[C@@H](Cc2c[nH]cn2)C(=O)NCC(=O)N[C@@H]([C@@H](C)O)C(=O)N[C@@H](C)C(=O)N2CCC[C@H]2C(=O)N1)C(C)C)C(C)C)C(=O)O [Compound 3] (GNWHGTAPDWSMGLPCVVM-OH; lactam N-9)
remaining at 7 h, 25 μg/ml [3]: ~60%

CC[C@H](C)[C@H](NC(=O)[C@H](CS)NC(=O)[C@@H]1CCCN1C(=O)[C@H](CC(C)C)NC(=O)CNC(=O)[C@H](CCSC)NC(=O)[C@H](CO)NC(=O)[C@H](Cc1c[nH]c2ccccc12)NC(=O)[C@@H]1CC(=O)NCC(=O)N[C@@H](CC(N)=O)C(=O)N[C@@H](Cc2c[nH]c3ccccc23)C(=O)N[C@@H](Cc2c[nH]cn2)C(=O)NCC(=O)N[C@@H]([C@@H](C)O)C(=O)N[C@@H](C)C(=O)N2CCC[C@H]2C(=O)N1)C(=O)N[C@@H](Cc1ccccc1)C(=O)N[C@@H](CCSC)C(=O)O [Compound 5] (GNWHGTAPDWSMGLPCIFM-OH; lactam N-9)
remaining at 1 h, 25 μg/ml [3]: 63%

H-SMGLPCIFM-OH [Compound f, H-Ser-Met-Gly-Leu-Pro-Cys-Ile-Phe-Met-OH]
remaining at 1 h, 25 μg/ml [3]: 12%

H-SMGLPCVVM-OH [Compound d, H-Ser-Met-Gly-Leu-Pro-Cys-Val-Val-Met-OH]
half-life at 25 μg/ml [4]: < 1 h

H-VTGRGDSPA-OH [Compound b, H-Val-Thr-Gly-Arg-Gly-Asp-Ser-Pro-Ala-OH]
half-life at 25 μg/ml ([1]; trypsin (Sigma Co.) in PBS(−) buffer): < 2 h | Percentage of platelet agglutination inhibition (%) ([5]; test compound 0.3 mM): 20.3% | Percentage of platelet agglutination inhibition (%) ([5]; test compound 1.0 mM): 61.2% | IC50 ([6]; B16-F10 cells on mouse fibronectin, 37° C. 30 minutes, read-out: concentration for 50% inhibition of the adhesion of the cells (IC50)): 1.13 mM

H-VYAVTGRGDSPA-NH2 [c, H-Val-Tyr-Ala-Val-Thr-Gly-Arg-Gly-Asp-Ser-Pro-Ala-NH2]
half-life at 25 μg/ml [7]: < 1 h | cell adhesion-inhibiting activity (comparison, FIG. 2) ([6]; same test, compound (2) versus compound (c)): almost the same cell adhesion-inhibiting activity

H-[dR]RP[Hyp]GFS[dF]LR-OH [Compound m]
Percentage inhibition (%) ([8]; test compound 10^−7 M): 68% | Percentage inhibition (%) ([8]; test compound 10^−8 M): 20%

albolarin
activity, times higher than the activity of Gly-Arg-Gly-Asp-Ser [9]: ~1000 times

flavoridin
activity, times higher than the activity of Gly-Arg-Gly-Asp-Ser [9]: ~1000 times

trigramin
activity, times higher than the activity of Gly-Arg-Gly-Asp-Ser [9]: ~1000 times

Source: patent US6872803B1, “Peptides” (Kyowa Hakko Kogyo Co., Ltd., priority 1993, dated 2005)
